Results on 4 compounds are retold here after ChEMBL document CHEMBL1671704, “Defining the role of mutations in Plasmodium vivax dihydrofolate reductase-thymidylate synthase gene using an episomal Plasmodium falciparum transfection system” (Antimicrob Agents Chemother, 2010).

Each structure is given as a SMILES string.

The test system of experiment [1] is Plasmodium falciparum. Briefly: Antimalarial activity against Plasmodium falciparum D6 infected in RBCs assessed as inhibition of [3H]hypoxanthine incorporation after 72 hrs. The experiment is classed as functional, organism-based.
Experiment [2] concerns Plasmodium falciparum. The experiment is described as follows: Antimalarial activity against Plasmodium falciparum TM91c235 harboring DHFR F57L, S58R, T61M, S117T mutant infected in RBCs assessed as inhibition of [3H]hypoxanthine incorporation after 72 hrs. The experiment is classed as functional, organism-based.
The test system of experiment [3] is Plasmodium falciparum. Briefly: Antimalarial activity against Plasmodium falciparum D6 harboring Plasmodium vivax wild type DHFR infected in RBCs assessed as inhibition of [3H]hypoxanthine incorporation after 72 hrs. Format: functional, organism-based.
Experiment [4] relates to Plasmodium falciparum. Briefly: Antimalarial activity against Plasmodium falciparum D6 harboring Plasmodium vivax DHFR S117N mutant infected in RBCs assessed as inhibition of [3H]hypoxanthine incorporation after 72 hrs. The experiment is classed as functional, organism-based.
The test system of experiment [5] is Plasmodium falciparum. The experiment is described as follows: Antimalarial activity against Plasmodium falciparum D6 harboring Plasmodium vivax DHFR F57L and S117N mutant infected in RBCs assessed as inhibition of [3H]hypoxanthine incorporation after 72 hrs. The experiment is classed as functional, organism-based.
The test system of experiment [6] is Plasmodium falciparum. Briefly: Antimalarial activity against Plasmodium falciparum D6 harboring Plasmodium vivax DHFR S58R and S117N mutant infected in RBCs assessed as inhibition of [3H]hypoxanthine incorporation after 72 hrs. The experiment is classed as functional, organism-based.
The test system of experiment [7] is Plasmodium falciparum. The experiment is described as follows: Antimalarial activity against Plasmodium falciparum D6 harboring Plasmodium vivax DHFR S58R, T61M and S117N mutant infected in RBCs assessed as inhibition of [3H]hypoxanthine incorporation after 72 hrs. Format: functional, organism-based.
The subject of experiment [8] is Plasmodium falciparum. Briefly: Antimalarial activity against Plasmodium falciparum D6 harboring Plasmodium vivax DHFR F57L, S58R, T61M, S117T mutant infected in RBCs assessed as inhibition of [3H]hypoxanthine incorporation after 72 hrs. Format: functional, organism-based.
For experiment [9], the system named is Plasmodium falciparum. Briefly: Ratio of IC50 for Plasmodium falciparum D6 harboring Plasmodium vivax DHFR S117N mutant to IC50 for Plasmodium falciparum D6 harboring Plasmodium vivax wild type DHFR. The experiment is classed as functional.
The subject of experiment [10] is Plasmodium falciparum. Briefly: Ratio of IC50 for Plasmodium falciparum D6 harboring Plasmodium vivax DHFR F57L and S117N mutant to IC50 for Plasmodium falciparum D6 harboring Plasmodium vivax wild type DHFR. The experiment is classed as functional.
For experiment [11], the system named is Plasmodium falciparum. Briefly: Ratio of IC50 for Plasmodium falciparum D6 harboring Plasmodium vivax DHFR S58R and S117N mutant to IC50 for Plasmodium falciparum D6 harboring Plasmodium vivax wild type DHFR. The experiment is classed as functional.
Experiment [12] concerns Plasmodium falciparum. The experiment is described as follows: Ratio of IC50 for Plasmodium falciparum D6 harboring Plasmodium vivax DHFR S58R, T61M and S117N mutant to IC50 for Plasmodium falciparum D6 harboring Plasmodium vivax wild type DHFR. The experiment is classed as functional.
Experiment [13] concerns Plasmodium falciparum. The experiment is described as follows: Ratio of IC50 for Plasmodium falciparum D6 harboring Plasmodium vivax DHFR F57L, S58R, T61M, S117T mutant to IC50 for Plasmodium falciparum D6 harboring Plasmodium vivax wild type DHFR. The experiment is classed as functional.
In experiment [14] the test system is Plasmodium falciparum. The experiment is described as follows: Ratio of IC50 for Plasmodium falciparum TM91c235 harboring DHFR F57L, S58R, T61M, S117T mutant to IC50 for Plasmodium falciparum D6. The experiment is classed as functional.

Broadly, the IC50 is the point on the concentration scale where inhibition reaches its midpoint. In the case of `CC1(C)N=C(N)N=C(N)N1OCCCOc1cc(Cl)c(Cl)cc1Cl`, the IC50 was 0.166 nM in experiment [1]; 0.339 nM in [2]; 0.067 nM in experiment [3]; 0.427 nM in experiment [4]; 1.5 nM in [5]; 0.69 nM in experiment [6]. Besides, the IC50 in experiment [7] stood at 0.105 nM; in experiment [8] it was 2.93 nM. The “Ratio IC50” value in experiment [9] was 6; in experiment [10], 22; in [11], 10; in experiment [12], 2; in experiment [13], 44; in experiment [14] it was 5.
Turning to `CC1(C)N=C(N)N=C(N)N1OCc1ccc(Cl)c(Cl)c1` [CLOCIGUANIL], the IC50 came to 0.021 nM in [1]; 3.16 nM in experiment [2]; 0.022 nM in experiment [3]; 0.067 nM in experiment [4]; 0.219 nM in experiment [5]; 0.582 nM in experiment [6]. The values for the IC50 in experiment [7] and in [8] were 0.073 nM and 56.4 nM, respectively. Moreover, the “Ratio IC50” value is on record as 6 in [9]; 10 in experiment [10]; 26 in experiment [11]; 3 in experiment [12]; 2565 in experiment [13]; 144 in [14].
In the case of `CC1(C)N=C(N)N=C(N)N1c1ccc(Cl)cc1` [CYCLOGUANIL], the IC50 in [1] was 0.118 nM; in [2], 116 nM; in [3], 0.429 nM; in experiment [4], 0.81 nM; in experiment [5], 2.77 nM; in experiment [6], 1.7 nM. Moreover, the IC50 in experiment [7] was found to be 0.587 nM; in experiment [8], 320 nM. For the same compound, the “Ratio IC50” value in experiment [9] was determined as 2; in [10] it was 6; in experiment [11], 4; in [12], 1; in [13], 746; in experiment [14], 50.
Take `CCc1nc(N)nc(N)c1-c1ccc(Cl)cc1` [PYRIMETHAMINE]: the half-inhibitory concentration (IC50) worked out at 0.028 nM in experiment [1]; 143 nM in [2]; 0.055 nM in experiment [3]; 3.66 nM in experiment [5]; 6.26 nM in experiment [6]; 2.81 nM in experiment [7]. The IC50 in [8] stood at 467 nM.
